One assay has as its system A375-NRAS^Q61K cells. The assay can be described thus: CTGlo Cell Viability Assay, A375-NRAS^Q61K (A375.11) cells, 96 hours. Type of assay: cell-based, human. As to conditions: A375.11 (A375-NRAS^Q61K) cells. The method in brief: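 A375 cells carrying BRAF V600E and NRAS Q61K were seeded at 250 cells/well with a 10-point half-log dose series (max 10 μM final). After 96 h at 37 °C, viability was read as ATP luminescence (CellTiter-Glo), background-subtracted and normalized to DMSO (100%). GI50 from 4-parameter fit; Emax is the lowest % viability.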

For the next assay, the target named is T1, BRAF V600E (Homo sapiens, UniProt P15056+Q96SW2, V600E).
T1 construct: knock-in of the HiBiT tag to the endogenous BRAF V600E locus; host or cells: A375.10 (A375 clonal line, CRISPR HiBiT knock-in at the endogenous BRAF V600E locus)
T1 sequence (P15056 whole entry V600E): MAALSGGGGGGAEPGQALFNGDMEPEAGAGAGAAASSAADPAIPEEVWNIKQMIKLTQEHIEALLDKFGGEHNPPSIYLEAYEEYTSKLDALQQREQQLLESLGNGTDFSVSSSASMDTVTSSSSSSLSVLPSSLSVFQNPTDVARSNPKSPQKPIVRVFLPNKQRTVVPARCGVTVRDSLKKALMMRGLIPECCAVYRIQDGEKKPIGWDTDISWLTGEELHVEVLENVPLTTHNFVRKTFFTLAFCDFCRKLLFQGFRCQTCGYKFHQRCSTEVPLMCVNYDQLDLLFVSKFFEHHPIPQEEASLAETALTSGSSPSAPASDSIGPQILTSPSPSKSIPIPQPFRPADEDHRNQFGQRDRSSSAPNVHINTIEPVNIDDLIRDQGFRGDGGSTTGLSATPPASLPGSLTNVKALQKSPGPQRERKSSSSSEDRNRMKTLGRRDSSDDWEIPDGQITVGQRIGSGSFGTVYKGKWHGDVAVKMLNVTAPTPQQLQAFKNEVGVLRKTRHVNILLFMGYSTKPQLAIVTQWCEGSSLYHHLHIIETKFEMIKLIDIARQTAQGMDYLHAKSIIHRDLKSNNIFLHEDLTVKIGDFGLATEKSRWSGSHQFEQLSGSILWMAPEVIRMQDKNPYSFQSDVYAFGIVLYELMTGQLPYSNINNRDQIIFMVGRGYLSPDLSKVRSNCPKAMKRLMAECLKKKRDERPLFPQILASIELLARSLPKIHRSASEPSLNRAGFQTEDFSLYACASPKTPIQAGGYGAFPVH
T1 sequence (Q96SW2 whole entry): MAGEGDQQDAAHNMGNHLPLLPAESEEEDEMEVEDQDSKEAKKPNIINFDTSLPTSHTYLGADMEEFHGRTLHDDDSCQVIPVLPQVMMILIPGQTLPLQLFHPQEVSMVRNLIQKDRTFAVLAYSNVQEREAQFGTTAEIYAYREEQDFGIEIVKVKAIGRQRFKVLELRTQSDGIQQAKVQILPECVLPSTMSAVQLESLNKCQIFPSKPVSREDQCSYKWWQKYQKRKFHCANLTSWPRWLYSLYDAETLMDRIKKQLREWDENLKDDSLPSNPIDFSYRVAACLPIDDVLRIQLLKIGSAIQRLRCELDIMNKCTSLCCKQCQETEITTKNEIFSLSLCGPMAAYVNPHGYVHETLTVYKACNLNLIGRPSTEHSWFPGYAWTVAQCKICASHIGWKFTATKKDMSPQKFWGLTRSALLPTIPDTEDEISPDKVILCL
T1 sequence (Q16531 whole entry partner): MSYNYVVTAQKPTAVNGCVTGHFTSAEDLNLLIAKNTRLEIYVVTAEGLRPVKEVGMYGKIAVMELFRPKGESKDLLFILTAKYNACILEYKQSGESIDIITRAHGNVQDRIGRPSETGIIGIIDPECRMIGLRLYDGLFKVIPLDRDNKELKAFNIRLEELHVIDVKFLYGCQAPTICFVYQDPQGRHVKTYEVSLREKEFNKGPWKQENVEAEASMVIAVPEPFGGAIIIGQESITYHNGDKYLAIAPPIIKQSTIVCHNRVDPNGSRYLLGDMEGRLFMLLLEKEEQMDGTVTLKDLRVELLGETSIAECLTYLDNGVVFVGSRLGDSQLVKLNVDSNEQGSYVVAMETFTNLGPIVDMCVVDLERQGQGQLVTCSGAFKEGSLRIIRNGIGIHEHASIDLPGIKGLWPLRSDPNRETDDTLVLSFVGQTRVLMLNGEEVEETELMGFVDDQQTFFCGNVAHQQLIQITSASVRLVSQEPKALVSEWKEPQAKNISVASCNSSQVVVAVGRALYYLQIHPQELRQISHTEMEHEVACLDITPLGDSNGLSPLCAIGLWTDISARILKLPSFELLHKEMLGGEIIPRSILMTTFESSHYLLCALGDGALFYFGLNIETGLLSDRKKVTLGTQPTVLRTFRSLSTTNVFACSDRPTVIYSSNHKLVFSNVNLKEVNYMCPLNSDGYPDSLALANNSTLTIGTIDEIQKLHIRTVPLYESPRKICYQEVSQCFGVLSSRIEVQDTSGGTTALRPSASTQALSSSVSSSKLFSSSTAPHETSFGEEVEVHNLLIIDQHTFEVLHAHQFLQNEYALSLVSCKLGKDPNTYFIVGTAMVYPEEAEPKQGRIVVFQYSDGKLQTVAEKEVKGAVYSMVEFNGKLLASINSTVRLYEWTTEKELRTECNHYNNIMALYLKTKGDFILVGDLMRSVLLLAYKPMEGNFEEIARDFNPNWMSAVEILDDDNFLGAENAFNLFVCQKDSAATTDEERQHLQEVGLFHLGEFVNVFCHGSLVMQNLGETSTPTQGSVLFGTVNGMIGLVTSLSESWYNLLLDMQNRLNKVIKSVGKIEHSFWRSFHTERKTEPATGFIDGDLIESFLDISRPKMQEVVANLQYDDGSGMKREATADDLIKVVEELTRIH
The experiment in a line: BRAF V600E HiBiT Degradation Assay. Type of assay: cell-based. As to conditions: for HiBiT-Degradation A375.10 BRAF 2 hours Emax / Emax: residual protein remaining. Summed up: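 Endogenous HiBiT knock-in on BRAF V600E in A375 cells (clone A375.10); 11-point half-log series, top 10 μM, 2, 6 or 24 h at 37° C. Lytic HiBiT luminescence, background-subtracted, normalized to DMSO; 4-parameter fit gives DC50, Emax (residual protein) and IP (inflection point).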

The mark [1] stands for this setting: Homo sapiens, 96 h, lowest % viability achieved.
[2] abbreviates: A375.10 cells, BRAF V600E, 2 hours, inflection point, read-out: HiBiT-Degradation A375.10 BRAF 2 hours IP.
The mark [3] stands for this setting: A375.10 cells, BRAF V600E, 2 hours, read-out: HiBiT-Degradation A375.10 BRAF 2 hours DC50.
Where [4] appears, read: A375.10 cells, BRAF V600E, 2 hours.
The mark [5] stands for this setting: A375.10 cells, BRAF V600E, 2 hours, read-out: HiBiT-Degradation A375.10 BRAF 2 hours Emax.
Setting [6] is: read-out: HiBiT-Degradation A375.10 BRAF 2 hours Emax, A375.10 cells, BRAF V600E, 2 hours.
Where [7] appears, read: read-out: HiBiT-Degradation A375.10 BRAF 2 hours DC50, A375.10 cells, BRAF V600E, 2 hours.
The mark [8] stands for this setting: read-out: HiBiT-Degradation A375.10 BRAF 2 hours IP, A375.10 cells, BRAF V600E, 2 hours, inflection point.

The values below come from patent US20260297060A1, “COMPOUNDS FOR THE DEGRADATION OF MUTANT BRAF” (C4 THERAPEUTICS, INC., priority 2023, published 2026).

Read-outs that look alike come from different tables or passages of the source.

As to `CN(CCO)S(=O)(=O)Nc1ccc(F)c(Oc2ccc3ncc(C4CC5(C4)CN(C4CCC(c6cc7c(cc6F)c(N6CCC(=O)NC6=O)nn7C)CC4)C5)nc3c2)c1C#N` (single isomer, unassigned) [Compound 321, 7-[2-cyano-6-fluoro-3-[[2-hydroxyethyl(methyl)sulfamoyl]amino]phenoxy]-2-[2-[4-[3-(2,4-dioxohexahydropyrimidin-1-yl)-5-fluoro-1-methyl-indazol-6-yl]cyclohexyl]-2-azaspiro[3.3]heptan-6-yl]quinoxaline], in the assay with A375-NRAS^Q61K cells (Homo sapiens, 96 h), the GI50 is over 10000 nM. This molecule also had an Emax in the assay with A375-NRAS^Q61K cells (setting [1]) of 50 to 90%. Further, the DC50 is under 1000 nM at BRAF V600E (setting [2]) and 1000 to 10000 nM at BRAF V600E (setting [3]). The “HiBiT-Degradation A375.10 BRAF 2 hours Emax” value at BRAF V600E (setting [4]) is listed as “* (>=90%)”.

Consider `CN(CCO)S(=O)(=O)Nc1ccc(F)c(Oc2ccc3ncc(C4CC5(C4)CN(C4CCC(c6cc7c(cc6F)c(N6CCC(=O)NC6=O)nn7C)CC4)C5)nc3c2)c1C#N` (single isomer, unassigned) [Compound 322, 7-[2-cyano-6-fluoro-3-[[2-hydroxyethyl(methyl)sulfamoyl]amino]phenoxy]-2-[2-[4-[3-(2,4-dioxohexahydropyrimidin-1-yl)-5-fluoro-1-methyl-indazol-6-yl]cyclohexyl]-2-azaspiro[3.3]heptan-6-yl]quinoxaline], for which the GI50 with A375-NRAS^Q61K cells is over 10000 nM. Moreover, in the assay with A375-NRAS^Q61K cells (lowest % viability achieved), the “CTGlo A375.11 96 hours Emax” value was “** (<90% and >50%)”. In addition, the DC50 was under 1000 nM at BRAF V600E (setting [2]) and 1000 to 10000 nM on BRAF V600E (setting [3]). Further, the “HiBiT-Degradation A375.10 BRAF 2 hours Emax” value at BRAF V600E (setting [4]) was “** (<90% and >50%)”.

In the assay with A375-NRAS^Q61K cells (Homo sapiens, 96 h), `CN(CCO)S(=O)(=O)Nc1ccc(F)c(Oc2ccc3ncn([C@H]4COC5(CCN(C6CC7(C6)CN(c6cc8c(cc6F)c(N6CCC(=O)NC6=O)nn8C)C7)CC5)C4)c(=O)c3c2)c1C#N` [Compound 130, (3R)-3-[6-[2-cyano-6-fluoro-3-[[2-hydroxyethyl(methyl)sulfamoyl]amino]phenoxy]-4-oxo-quinazolin-3-yl]-8-[2-[3-(2,4-dioxohexahydropyrimidin-1-yl)-5-fluoro-1-methyl-indazol-6-yl]-2-azaspiro[3.3]heptan-6-yl]-1-oxa-8-azaspiro[4.5]decane] showed a 50% growth inhibitory concentration (GI50) of over 10000 nM. In addition, the Emax in the assay with A375-NRAS^Q61K cells (setting [1]) and at BRAF V600E (setting [5]) was 50 to 90% in each case. The DC50 at BRAF V600E (setting [2]) and at BRAF V600E (setting [3]) was under 1000 nM throughout.

In the assay with A375-NRAS^Q61K cells (Homo sapiens, 96 h), `CCN(C)S(=O)(=O)Nc1ccc(F)c(Oc2ccc3ncc([C@@H]4COC5(CCN(C6CC7(C6)CN(c6cc8c(cc6F)c(N6CCC(=O)NC6=O)nn8C)C7)CC5)C4)nc3c2)c1C#N` [Compound 161, (3R)-3-[7-[2-cyano-3-[[ethyl(methyl)sulfamoyl]amino]-6-fluoro-phenoxy]quinoxalin-2-yl]-8-[2-[3-(2,4-dioxohexahydropyrimidin-1-yl)-5-fluoro-1-methyl-indazol-6-yl]-2-azaspiro[3.3]heptan-6-yl]-1-oxa-8-azaspiro[4.5]decane] yielded a GI50 of 1000 to 10000 nM. Moreover, the Emax with A375-NRAS^Q61K cells (setting [1]) and on BRAF V600E (setting [6]) was 50 to 90% in each case. In addition, the DC50 is under 1000 nM at BRAF V600E (setting [2]) and over 10000 nM on BRAF V600E (setting [3]).

`CCN(C)S(=O)(=O)Nc1ccc(F)c(Oc2ccc3ncn(C4CC5(CCN(C6CC7(C6)CN(c6cc8c(cc6F)c(N6CCC(=O)NC6=O)nn8C)C7)CC5)C4)c(=O)c3c2)c1F` (stereo not drawn) [Compound 164, 3-[7-[2-[3-(2,4-dioxohexahydropyrimidin-1-yl)-5-fluoro-1-methyl-indazol-6-yl]-2-azaspiro[3.3]heptan-6-yl]-7-azaspiro[3.5]nonan-2-yl]-6-[3-[[ethyl(methyl)sulfamoyl]amino]-2,6-difluoro-phenoxy]-4-oxo-quinazoline] gave a GI50 in the assay with A375-NRAS^Q61K cells (Homo sapiens, 96 h) of 1000 to 10000 nM. The Emax with A375-NRAS^Q61K cells (setting [1]) and at BRAF V600E (setting [5]) was 50 to 90% throughout. Besides, the DC50 at BRAF V600E (setting [2]) and on BRAF V600E (setting [3]) was under 1000 nM in each case.

Regarding `CN(CCO)S(=O)(=O)Nc1ccc(F)c(Oc2ccc3ncn([C@H]4COC5(CCN([C@H]6C[C@@H](c7cc8c(cc7F)c(N7CCC(=O)NC7=O)nn8C)C6)CC5)C4)c(=O)c3c2)c1C#N` [Compound 165, (3R)-3-[6-[2-cyano-6-fluoro-3-[[2-hydroxyethyl(methyl)sulfamoyl]amino]phenoxy]-4-oxo-quinazolin-3-yl]-8-[3-[3-(2,4-dioxohexahydropyrimidin-1-yl)-5-fluoro-1-methyl-indazol-6-yl]cyclobutyl]-1-oxa-8-azaspiro[4.5]decane], in the assay with A375-NRAS^Q61K cells (Homo sapiens, 96 h), the GI50 was over 10000 nM. Moreover, the Emax with A375-NRAS^Q61K cells (setting [1]) and at BRAF V600E (setting [5]) was 50 to 90% in each case. The DC50 at BRAF V600E (setting [2]) and on BRAF V600E (setting [3]) was under 1000 nM throughout.

In the assay on A375-NRAS^Q61K cells (Homo sapiens, 96 h), `CN(CCO)S(=O)(=O)Nc1ccc(F)c(Oc2ccc3ncn([C@H]4COC5(CCN([C@H]6C[C@@H](c7ccc(NC8CCC(=O)NC8=O)cc7F)C6)CC5)C4)c(=O)c3c2)c1C#N` (stereo partly drawn) [Compound 168, (3R)-3-[6-[2-cyano-6-fluoro-3-[[2-hydroxyethyl(methyl)sulfamoyl]amino]phenoxy]-4-oxo-quinazolin-3-yl]-8-[3-[4-[(2,6-dioxo-3-piperidyl)amino]-2-fluoro-phenyl]cyclobutyl]-1-oxa-8-azaspiro[4.5]decane] came in with a GI50 of over 10000 nM. In addition, the Emax in the assay with A375-NRAS^Q61K cells (setting [1]) and on BRAF V600E (setting [5]) was 50 to 90% each time. Also, the DC50 at BRAF V600E (setting [2]) and at BRAF V600E (setting [3]) was under 1000 nM throughout.

Molecule `CCN(C)S(=O)(=O)Nc1ccc(F)c(Oc2ccc3ncn([C@H]4COC5(CCN(C6CC7(C6)CN(c6cc8c(cc6F)c(N6CCC(=O)NC6=O)nn8C)C7)CC5)C4)c(=O)c3c2)c1F` [Compound 186, (3R)-8-[2-[3-(2,4-dioxohexahydropyrimidin-1-yl)-5-fluoro-1-methyl-indazol-6-yl]-2-azaspiro[3.3]heptan-6-yl]-3-[6-[3-[[ethyl(methyl)sulfamoyl]amino]-2,6-difluoro-phenoxy]-4-oxo-quinazolin-3-yl]-1-oxa-8-azaspiro[4.5]decane] returned a GI50 in the assay with A375-NRAS^Q61K cells (Homo sapiens, 96 h) of 1000 to 10000 nM. The Emax in the assay with A375-NRAS^Q61K cells (setting [1]) was over 90%; at BRAF V600E (setting [5]), 50 to 90%. Also, the DC50 on BRAF V600E (setting [7]) and on BRAF V600E (setting [8]) was under 1000 nM throughout.

Take `CN(CCO)S(=O)(=O)Nc1ccc(F)c(Oc2ccc3ncc(C4CC5(CCN(C6CC7(C6)CN(c6cc8c(cc6F)c(N6CCC(=O)NC6=O)nn8C)C7)CC5)C4)nc3c2)c1C#N` (stereo not drawn) [Compound 187, 7-[2-cyano-6-fluoro-3-[[2-hydroxyethyl(methyl)sulfamoyl]amino]phenoxy]-2-[7-[2-[3-(2,4-dioxohexahydropyrimidin-1-yl)-5-fluoro-1-methyl-indazol-6-yl]-2-azaspiro[3.3]heptan-6-yl]-7-azaspiro[3.5]nonan-2-yl]quinoxaline]: the GI50 in the assay with A375-NRAS^Q61K cells (Homo sapiens, 96 h) was over 10000 nM. Also, the Emax in the assay with A375-NRAS^Q61K cells (setting [1]) and on BRAF V600E (setting [5]) was 50 to 90% each time. The DC50 at BRAF V600E (setting [7]) was 1000 to 10000 nM; at BRAF V600E (setting [8]), under 1000 nM.

In the assay on A375-NRAS^Q61K cells (Homo sapiens, 96 h), `CCN(C)S(=O)(=O)Nc1ccc(F)c(Oc2ccc3ncn(C4CC5(CCN(C6CC7(C6)CN(c6ccc(NC8CCC(=O)NC8=O)cc6F)C7)CC5)C4)c(=O)c3c2)c1F` (stereo not drawn) [Compound 188, 3-[7-[2-[4-[(2,6-dioxo-3-piperidyl)amino]-2-fluoro-phenyl]-2-azaspiro[3.3]heptan-6-yl]-7-azaspiro[3.5]nonan-2-yl]-6-[3-[[ethyl(methyl)sulfamoyl]amino]-2,6-difluoro-phenoxy]-4-oxo-quinazoline] had a GI50 of over 10000 nM. In addition, the Emax with A375-NRAS^Q61K cells (setting [1]) and on BRAF V600E (setting [5]) was 50 to 90% each time. In addition, the DC50 on BRAF V600E (setting [2]) and on BRAF V600E (setting [3]) was under 1000 nM throughout.

The molecule `CCN(C)S(=O)(=O)Nc1ccc(F)c(Oc2ccc3ncn([C@H]4COC5(CCC(N6CC[C@@H](c7ccc(NC8CCC(=O)NC8=O)cc7F)C(F)(F)C6)CC5)C4)c(=O)c3c2)c1C#N` (stereo partly drawn) [Compound 189, 6-[2-cyano-3-[[ethyl(methyl)sulfamoyl]amino]-6-fluoro-phenoxy]-3-[(3R)-8-[(4S)-4-[4-[(2,6-dioxo-3-piperidyl)amino]-2-fluoro-phenyl]-3,3-difluoro-1-piperidyl]-1-oxaspiro[4.5]decan-3-yl]-4-oxo-quinazoline] returned a GI50 in the assay with A375-NRAS^Q61K cells (Homo sapiens, 96 h) of over 10000 nM. In addition, the Emax in the assay with A375-NRAS^Q61K cells (setting [1]) is under 50%; on BRAF V600E (setting [6]) it was 50 to 90%. Besides, the DC50 at BRAF V600E (setting [2]) and at BRAF V600E (setting [3]) was under 1000 nM throughout.

For `CCN(C)S(=O)(=O)Nc1ccc(F)c(Oc2ccc3ncn([C@H]4COC5(CCN(C6CC7(C6)CN(c6ccc(NC8CCC(=O)NC8=O)cc6F)C7)CC5)C4)c(=O)c3c2)c1F` (stereo partly drawn) [Compound 193, (3R)-8-[2-[4-[(2,6-dioxo-3-piperidyl)amino]-2-fluoro-phenyl]-2-azaspiro[3.3]heptan-6-yl]-3-[6-[3-[[ethyl(methyl)sulfamoyl]amino]-2,6-difluoro-phenoxy]-4-oxo-quinazolin-3-yl]-1-oxa-8-azaspiro[4.5]decane], the GI50 in the assay with A375-NRAS^Q61K cells (Homo sapiens, 96 h) lay within 1000 to 10000 nM. Moreover, the Emax in the assay on A375-NRAS^Q61K cells (setting [1]) and on BRAF V600E (setting [5]) was 50 to 90% each time. The DC50 on BRAF V600E (setting [7]) was over 10000 nM; at BRAF V600E (setting [8]) it was under 1000 nM.
